Experimental data taken from US20020090619A1, “Methods for identifying mitochondrial divalent cation transporters” (priority 2000, published 2002).

What was measured:
[1] = ETH 129 mediated cation transport into Quin-2 loaded POPC vesicles; assay type: biochemical; conditions: 1.0 mM CaCl2, no Val, FIG. 5
Method: Unilamellar vesicles loaded with Quin-2 were prepared from 1-palmitoyl-2-oleoyl-sn-glycerophosphatidylcholine (POPC) by freeze-thaw extrusion (Erdahl et al., 1994 Biophys. J. 66:1678; Erdahl et al., 1995 Biophys. J. 69:2350). The formation medium contained 5 mM Quin-2 (K+), 10 mM Hepes (K+), pH 7.00, and 100 mM KCl. A high internal K+ concentration was sought to allow the generation of membrane potentials of varying magnitude (see below). The preparations obtained were applied to Sephadex™ G-50 mini-columns (Pharmacia, Piscataway N.J.) and eluted by low speed centrifugation (Fry et al., 1978 Anal. Biochem. 90:809), to replace the external medium with a 10 mM Hepes buffer (Na+), pH 7.00 (Erdahl et al., 1994 Biophys. J. 66:1678; Erdahl et al., 1995 Biophys. J. 69:2350). The nominal concentration of POPC in final preparations was determined as lipid phosphorus (Bartlett, 1959 J Biol. Chem. 234:466) and was near 80 mM. The average diameter of these vesicles was 71 nm as determined by freeze-fracture electron microscopy (Chapman et al., 1990 Chem. Phys. Lipids 55:73). They contained entrapped K+ at approximately 125 mM, as determined by atomic absorption spectroscopy, and Quin-2 at approximately 6 mM. The latter value was determined by titrating lysed vesicles with a standard solution of CaCl2 and was about one third of the expected value (Erdahl et al., 1995 Bipohys. J. 69:3250). The high solute level in the formation medium reduced the efficiency of Quin-2 entrapment by reducing the effectiveness of a freeze-thaw driven solute concentrating mechanism that normally elevates the internal concentrations of solutes, relative to the external medium (Chapman et al., 1990 Chem. Phys. Lipids 55:73; Chapman et al., 1990 Chem. Phys. Lipids 60:201).
POPC vesicles containing Quin-2 were utilized at a nominal phospholipid concentration of 1.0 mM, and at 25° C. The external medium contained polyvalent cation salts as described below, 100 mM NaCl, or mixtures of NaCl and KCl totaling […], and 10 mM Hepes, pH 7.00, unless otherwise noted. The medium pH was adjusted with NaOH that had been passed over Chelex 100 columns to remove contaminating cations (Erdahl et al., 1994 Biophys. J. 66:1678). In most cases an inside negative membrane electrical potential was present during the experiments. This was generated by the presence of 0.5 μM valinomycin (Val), which transports K+ out of the vesicles electrogenically (Erdahl et al., 1994 Biophys. J. 66:1678). The magnitude of the potential was controlled by varying the concentration ratio of Na+ to K+ in the external medium. A TPP+electrode was used to measure the potential (Broekemeier et al, 1998 Biochem. 37:13059), and thereby to verify that the calculated values were obtained. For these purposes the incubation medium contained 2.0 μM TPP.Cl and the entrapped volume was taken to be 2.02 μl/ml at a nominal POPC concentration of 1.0 mM (Chapman et al., 1990 Chem. Phys. Lipids 55:73).
Val was omitted when an imposed membrane potential was not desired, or in some cases 5 μM of the protonophore carbonyl cyanide m-chlorophenylhydrazone (CCP) was present instead of Val.
The transport of polyvalent cations was monitored by difference absorbance measurements which detected formation of the Quin-2:cation complex within the vesicle lumen. An Aminco DW2a spectrophotometer operated in the dual wavelength mode was employed. In addition, an Oriel No. 59800 band pass filter was used between the cuvette and the beam scrambler-photomultiplier assembly to prevent detection of the fluorescent light emitted by Quin-2. The sample wavelength for all cations was 264 nm. The reference wavelengths were at an isosbestic point in the Quin-2/Quin-2:cation complex difference spectrum of interest. These wavelengths varied slightly from cation to cation, as previously described (Erdahl et al., 1996 Biochem. 35:13817). […]

[2] = test system: yeast mitochondria; test: Membrane potential ΔΨ of isolated yeast mitochondria (safranin O); assay type: biochemical, Saccharomyces cerevisiae; conditions: for effect on the depression of ΔΨ produced by ETH 129 plus Ca2+: 60 μM CaCl2, 3.6 μM ETH 129
Method: The yeast strain W303-1A (Saccharomyces cerevisiae) was grown aerobically at 30° C. in a medium containing 2% lactate, 1% yeast extract, 2% peptone, 0.05% dextrose, and 0.01% adenine at pH 5.0, and cells were harvested during the logarithmic phase (A600=1.8−2.2). Mitochondria were isolated from spheroplasts as previously described (Jung et al., 1997 J. Biol. Chem. 272:21104), except that 0.6 M sucrose was used in the homogenization medium instead of 0.6 M mannitol (Daum et al., 1982 J. Biol. Chem. 257:13028). The resulting preparations were maintained on ice and were suspended in 0.6 M mannitol 20 mM HEPES (K+) (pH 6.8), containing 0.75 mg/ml BSA and 0.1 mM EGTA. Protein concentration was determined by a reduced volume Biuret method in which 50 μl of the final preparation were solubilized by adding an equal volume of 10% deoxycholate (Na+), with 0.4 ml of Biuret reagent added to the resulting mixture. BSA was employed as the standard.
Unless otherwise noted, mitochondria were incubated at 1 mg protein/ml and at approximately 25° C. in a medium that contained 0.6 M mannitol, 10 mM Pi (K+), 10 mM Hepes (TEA+), pH 7.2, plus 1 mM ethanol as an oxidizable substrate. Compounds having a low solubility in water were added from stock solutions prepared in methanol or DMSO. Ca2+ transport and membrane potential were monitored using the indicating dyes antipyrylazo III (ΔA720-790) and safranin O (ΔA511-533), respectively (Akerman et al., 1976 FEBS Lett. 68:191; Scarpa et al., 1978 Biochem. 17:1378). An SLM Aminco DW-2C spectrophotometer operated in the dual wavelength mode was employed for these purposes. The same instrument, operated in split beam mode, was used to monitor mitochondrial swelling as a decrease in apparent absorbance of mitochondrial suspensions at 540 nm. Oxygen consumption data were obtained using a Clark-type electrode in parallel experiments. Atomic absorption spectroscopy was utilized to monitor the transport of other cations by yeast mitochondria. Briefly, samples were taken at appropriate times and the mitochondria were rapidly sedimented in a microcentrifuge. After carefully removing supernatants, the pellets were solubilized with 2 N percholoric acid (overnight) and centrifuged a second time. The resulting supernatants were diluted with an appropriate volume of distilled water and the concentration of the cation in question was subsequently determined.

[3] = test system: isolated yeast mitochondria; test: Ca2+ transport in isolated yeast mitochondria expressing aequorin (luminescence); assay type: biochemical, Saccharomyces cerevisiae; conditions: for Rate of increase in matrix Ca^2+ concentration / % of Control: external free Ca^2+ 0.8 μM, agent 1 μM; for Rate of increase in matrix Ca^2+ concentration: triplicate; for % of Control: rate of increase in matrix Ca^2+
Method: For preculture, the transformant was inoculated into 50 ml of SC-U plus 2% glucose, and incubated in an air shaker at 180 rpm and 30° C. At 24 hr, the preculture was transferred to 500 ml of a medium containing 1% yeast extract, 2% peptone, 2% lactate, 1% galactose, 0.012% adenine, pH 5 w/NaOH, and growth was continued under conditions which were otherwise the same. Cells were harvested after an additional 24 hr, spheroplasts were prepared using zymolyase, and mitochondria were isolated by the method of Daum et al. (1982) as previously described (Jung et al., 1997). The final pellet was resuspended at ˜20 mg protein/ml in 0.6 M mannitol, 20 mM HEPES (K^+ salt, pH 6.8). Apoaequorin in the intact or disrupted mitochondria was reconstituted by incubation with coelenterazine as described above for cells.
For most experiments, the mitochondria were present at 0.4 mg protein/ml in a standard medium that contained 0.3 M KCl, 20 mM HEPES, (K^+ salt, pH 7.10), 10 mM KH2PO4, 2 mM EGTA, and 2 mM MgCl2. Other additions are described in greater detail below. Ca^2+ buffers were formed by adding various amounts of CaCl2 to this EGTA containing medium. The free Ca^2+ concentrations which resulted were calculated using a computer program (Brooks et al., 1992 Anal. Biochem. 201:119).
Luminescence measurements were carried out in 6×50 mm culture tubes, using a total volume of 0.3 ml, and were started by injection of 5-20 μl of mitochondria or cells. A SAI model 3000 integrating photometer was employed, with AJD sampling at 0.4 seconds intervals driven by Asyst software. Values were transformed into corresponding Ca^2+ concentrations by computer assisted calculations based upon published calibration methods (Allen et al., 1977 Science 195:996; Brini et al., 1995 J. Biol. Chem. 270:9896). For each value, the ratio of observed luminescence (L) to the potential luminescence remaining (Lmax) was calculated, and compared to a calibration curve which relates this ratio to the free Ca^2+ concentration. Thus, complete calibrated progress curves were generated. The total luminescence available initially (Ltotal) must be known and was determined in separate experiments, wherein a saturating Ca^2+ concentration (20 μM) is employed to discharge the aequorin completely. This value allows Lmax to be calculated at any time, as Ltotal minus the sum of luminescence that already occurred.
The calibration data were obtained at an ionic strength of 335 mM and in the presence of 1 mM Mg^2+, to mimic conditions in the mitochondrial matrix, because both factors influence the affinity of aequorin for Ca2+ (Cobbold et al., 1987 Biochem. J. 248:313). Luminescence values were corrected for low background values that are obtained when Ca^2+ is absent before conducting further calculations.

[4] = test system: intact yeast; test: Aequorin luminescence in intact yeast cells expressing mitochondrially targeted aequorin; assay type: cell-based, Saccharomyces cerevisiae; conditions: intact cells, FIG. 19B
Method: Yeast cells (strain X4003-5B; leu2, ade1, his4, met2, ura3, trp5, gal1) obtained from the Yeast Genetic Stock Center (Berkeley, Calif.) were transformed with the pYES2 plasmid, encoding the human mitochondrially targeted apoaequorin fragment, using the lithium acetate method (Sambrook et al., 1989), and INVSc1 cells were transformed with the pGK plasmid encoding the yeast mitochondrially targeted apoaequorin fragment. Selection was carried out on plates prepared with synthetic complete medium minus uracil (SC-U) (Sherman, 1991 Meths. Enzymol. 194:3). Transformed colonies were cultured in a small volume of SC-U and assayed for aequorin activity in vitro as described by Nakajima et al. (1991 Proc. Nat. Acad. Sci. USA 88:6878). Briefly, the cells were harvested by centrifugation, resuspended in lysis buffer (50 mM Tris, 2 mM EDTA, 0.5 mM PMSF, pH 8 w/NaOH), disrupted by vortexing with glass beads, and then treated with 0.1% Triton X-100 to release apoaequorin from the mitochondria. Following centrifugation, 200 μl aliquots of the supernatants were incubated with coelenterazine (2.5 μM) and 2-mercaptoethanol (2 μl), for ˜3 hr while standing on ice, to form the luminescent aequorin from its apoprotein. The coelenterazine cofactor is highly hydrophobic and readily permeates yeast cell membranes (Nakajima et al., 1991) such that reconstitution was conducted without disrupting the cells in some cases. 2-mercaptoethanol was omitted when intact cells were employed. A transformant which yielded high luminescence (named X4003-5B-AEQmito1) was selected for further characterization.
For preculture, the transformant was inoculated into 50 ml of SC-U plus 2% glucose, and incubated in an air shaker at 180 rpm and 30° C. At 24 hr, the preculture was transferred to 500 ml of a medium containing 1% yeast extract, 2% peptone, 2% lactate, 1% galactose, 0.012% adenine, pH 5 w/NaOH, and growth was continued under conditions which were otherwise the same. […]
Luminescence measurements were carried out in 6×50 mm culture tubes, using a total volume of 0.3 ml, and were started by injection of 5-20 μl of mitochondria or cells. […] For each value, the ratio of observed luminescence (L) to the potential luminescence remaining (Lmax) was calculated, and compared to a calibration curve which relates this ratio to the free Ca^2+ concentration. […] The total luminescence available initially (Ltotal) must be known and was determined in separate experiments, wherein a saturating Ca^2+ concentration (20 μM) is employed to discharge the aequorin completely. This value allows Lmax to be calculated at any time, as Ltotal minus the sum of luminescence that already occurred. […]

Molecule | influence on activity of the transporter in yeast mitochondria [3] | Rate of increase in matrix Ca^2+ concentration [3] | % of Control [3] [%] | further results
N#CC(C#N)=NNc1cccc(Cl)c1 [CCP, carbonyl cyanide m-chlorophenylhydrazone] |  |  |  | activation of ETH 129 mediated Ca2+ transport [1]: rate enhancement increasing progressively as the CCP concentration rose to 5 μM
O=C(O)CN(CCOCCOCCN(CC(=O)O)CC(=O)O)CC(=O)O [EGTA] |  |  |  | effect on the depression of ΔΨ produced by ETH 129 plus Ca2+ [2]: reversed
CO[C@@H]1C[C@@H](C[C@H]2CC[C@H](C)[C@H]([C@@H](C)C(=O)O)O2)O[C@]2(O[C@](C)([C@H]3CC[C@@](C)([C@@H]4O[C@@H]([C@H]5O[C@@](O)(CO)[C@H](C)C[C@@H]5C)C[C@@H]4C)O3)C[C@H]2C)[C@@H]1C [Nigericin] | not influenced | 2.17 ± .12 nM/s | 111 | 
N.N.N.N.N.N.N.N.N.N.N.N.N.N.[Cl-].[Cl-].[Cl-].[Cl-].[Cl-].[Cl-].[O-2].[O-2].[Ru+3].[Ru+3].[Ru+4] [Ruthenium red] | not influenced | 2.21 ± .23 nM/s | 113 | 
CC(C)[C@@H]1NC(=O)[C@H](C)OC(=O)[C@@H](C(C)C)NC(=O)[C@@H](C(C)C)OC(=O)[C@H](C(C)C)NC(=O)[C@H](C)OC(=O)[C@@H](C(C)C)NC(=O)[C@@H](C(C)C)OC(=O)[C@H](C(C)C)NC(=O)[C@H](C)OC(=O)[C@@H](C(C)C)NC(=O)[C@@H](C(C)C)OC1=O [Valinomycin] | not influenced | 2.32 ± .31 nM/s | 118 | 
C=C1[C@@H]2CC[C@H]3[C@]4(C)C[C@H](O[C@@H]5O[C@H](CO)[C@@H](OS(=O)(=O)O)[C@H](OS(=O)(=O)O)[C@H]5OC(=O)CC(C)C)CC(C(=O)O)(C(=O)O)[C@H]4CC[C@]3(C2)[C@H]1O [carboxyatractyloside] |  |  |  | effect on the depression of ΔΨ produced by ETH 129 plus Ca2+ [2]: no effect
C[C@H](CCC(=O)O)C[C@H](C)C[C@H](C)C(=O)/C=C(\O)[C@H](C)C[C@H](C)C/C=C/[C@@H](C)[C@@H](O)[C@@H](C)[C@@H](O)C[C@@H]1CC[C@@](C)([C@H]2CC[C@@](C)([C@@H](C)O)O2)O1 [ionomycin] |  |  |  | effect on ΔΨ, ionophore together with Ca2+ ([2]; BSA absent, CaCl2 plus ionophore, FIG. 11C): not duplicated
coelenterazine n |  |  |  | luminescence intensity as aequorin cofactor vs parent coelenterazine [4]: comparable to that of the parent
